From patent publication US7037939B2, “Compound and derivative of gabapentin” (Industrial Technology Research Institue, priority 2002, dated 2006) come the findings set out here.

In one data set the test system is Caco-2 cell. In words: Caco-2 monolayer cell transmission rate (in vitro intestinal absorption model). In kind it is in vitro ADME, human. An excerpt: The common use of the activity selection model for the in vitro intestinal absorption comprises: (1) Carcinoms (Caco-2); (2) Using Chamber; (3) Everted Gut Sac. Basically, there is no difference for those three drug-activity-selection models when they are used for evaluating the activity selection. However, in terms of the cell source from human, a cell line is predominant. Moreover, with the cellular metabolism being similar to human intestines, Caco-2 becomes an excellent tool in the study of intestine absorption. Therefore, in the comparison of the in vitro transmission rate between gabapentin and gabapentin derivatives, the Caco-2 system is still the favorable model.
The research for studying gabapentin and the derivatives thereof in the present invention includes: Caco-2 cell activation, Caco-2 monolayer cell cultivation, resistance value measurement, effect of time to gabapentin transmission rate, and comparison of transmission rate between gabapentin and gabapentin derivatives. In constructing the Caco-2 monolayer, the original cell line is the human colon adenocarcinoma cell (Caco-2), and its data sheet is listed as Table 2.
The Caco-2 cell is activated appropriately, and seeded in the transwell at 37° C. in an amount of about 1×10^5. The aliquot is cultivated in 5% CO2 at 37° C. and replaced with a fresh medium every 3 to 4 days, and then the monolayer cell is obtained by the 21 days cultivation. The integrity of the Caco-2 cell is further characterized by tissue section and resistance value measurement.
HPLC Analysis: Intersil ODS-3V 250*4.6 mm column, Solvent: MeOH/H2O=10:90 to 70:30 with 0.1% of NH4OAc, Flow rate=1.0 ml/min, ELSD: Evaporative Light Scattering Detector. Every derivative has been repeated for 3 times in analysis, 4 hr later, the sample is analyzed for the transmission rate and then averaged to account its transmission fold.

A short description of data set [1]: Oral drug absorption test in rats: gabapentin concentration in blood/serum by LC/MS/MS. It counts as in vivo, rat. To be noted: 300 mg/kg, ratio of AUC to Gabapentin HCl. The procedure:
Rats (3 male, Winstar rats) are fed with 300 mg/kg dosage of compounds. Plural blood samples are collected at different times (0, 0.5, 1, 2, 3, 8, 12, 24 hrs). The blood samples are centrifuged, and the concentration of gabapentin in the serum are analyzed with LC/MS/MS (MRM method, limitation of instruments 0.005 μg/mL).
After reducing the dosage, compounds of gabapentin prodrugs were selected for further pharmacodynamic analysis. The rats are fed with 50 mg/kg dosage of gabapentin equivalency individually.

Where [2] appears, read: Caco-2 monolayer, 4 h, mean of 3 repeats, HPLC-ELSD.
[3] abbreviates: ratio of Caco-2 transmission rate to GBP.HCl, 4 h.

Each structure is given as a SMILES string.

Consider `CCOC(=O)CC1(CNC(=O)CC2(CN)CCCCC2)CCCCC1` [Embodiment 2, (1-{[2-(1-Aminomethyl-cyclohexyl)-acetylamino]-methyl}-cyclohexyl)-acetic acid ethyl ester], for which, in the data set on Caco-2 cell (human, Caco-2, 4 h), the “Caco-2 Cell Mean Total Transmission rate 4 h (%)” value is 10.25% and the “gbp-prodrug/gbp Transmission Fold” value is reported as 9.3 Fold. Further, the “AUC value relative to Gabapentin HCl” value in data set [1] amounted to 14.9 times.

Take `NCC1(CC(=O)N2CCCC2C(=O)NCC2(CC(=O)O)CCCCC2)CCCCC1` (centres unmarked) [Embodiment 23, {1-[({1-[2-(1-Aminomethyl-cyclohexyl)-acetyl]-pyrrolidine-2-carbonyl}-amino)-methyl]-cyclohexyl}-acetic acid]: the “Caco-2 Cell Mean Total Transmission rate 4 h (%)” value with Caco-2 cell (setting [2]) is on record as 10.73%. The “gbp-prodrug/gbp Transmission Fold” value in the data set with Caco-2 cell (setting [3]) stood at 9.8 Fold.

Consider `CCOC(=O)CC1(CNC(=O)c2ccc(O)c(OC)c2)CCCCC1` [Embodiment 24, {1-[(4-Hydroxy-3-methoxy-benzoylamino)-methyl]-cyclohexyl}-acetic acid ethyl ester], for which, in the data set with Caco-2 cell (human, Caco-2, 4 h), the “Caco-2 Cell Mean Total Transmission rate 4 h (%)” value is recorded as 13.59% and the “gbp-prodrug/gbp Transmission Fold” value came to 12.4 Fold.

On to `CCOC(=O)CC1(CNC(=O)C2CCC(=O)N2)CCCCC1` (centres unmarked) [Embodiment 25, (1-{[(5-Oxo-pyrrolidine-2-carbonyl)-amino]-methyl}-cyclohexyl)-acetic acid ethyl ester], for which, in the data set on Caco-2 cell (human, Caco-2, 4 h), the “Caco-2 Cell Mean Total Transmission rate 4 h (%)” value was found to be 5.68% and the “gbp-prodrug/gbp Transmission Fold” value was 5.2 Fold.

As to `CCOC(=O)CC1(CNC(=O)C(N)CCSC)CCCCC1` (centres unmarked) [Embodiment 26, {1-[(2-Amino-4-methylsulfanyl-butyrylamino)-methyl]-cyclohexyl}-acetic acid ethyl ester], in the data set with Caco-2 cell (human, Caco-2, 4 h), the “Caco-2 Cell Mean Total Transmission rate 4 h (%)” value stood at 9.02% and the “gbp-prodrug/gbp Transmission Fold” value worked out at 8.2 Fold.

For the compound `CCOC(=O)CC1(CNC(=O)c2cccnc2)CCCCC1` [Embodiment 27, (1-{[(Pyridine-3-carbonyl)-amino]-methyl}-cyclohexyl)-acetic acid ethyl ester], in the data set on Caco-2 cell (human, Caco-2, 4 h), the “Caco-2 Cell Mean Total Transmission rate 4 h (%)” value is on record as 9.39% and the “gbp-prodrug/gbp Transmission Fold” value stood at 8.5 Fold.

For the compound `CCOC(=O)CC1(CNC(=O)C(C)N)CCCCC1` (centres unmarked) [Embodiment 28, {1-[(2-Amino-propionylamino)-methyl]-cyclohexyl}-acetic acid ethyl ester], in the data set with Caco-2 cell (human, Caco-2, 4 h), the “Caco-2 Cell Mean Total Transmission rate 4 h (%)” value came out at 8.11% and the “gbp-prodrug/gbp Transmission Fold” value came to 7.4 Fold.

As to `CCOC(=O)CC1(CNC(=O)C(N)C(C)C)CCCCC1` (centres unmarked) [Embodiment 29, {1-[(2-Amino-3-methyl-butyrylamino)-methyl]-cyclohexyl}-acetic acid ethyl ester], in the data set on Caco-2 cell (human, Caco-2, 4 h), the “Caco-2 Cell Mean Total Transmission rate 4 h (%)” value is 8.73% and the “gbp-prodrug/gbp Transmission Fold” value stood at 7.9 Fold.

In the case of `CCOC(=O)CC1(CNC(=O)C(N)c2ccccc2)CCCCC1` (centres unmarked) [Embodiment 30, {1-[(2-Amino-2-phenyl-acetylamino)-methyl]-cyclohexyl}-acetic acid ethyl ester], in the data set with Caco-2 cell (human, Caco-2, 4 h), the “Caco-2 Cell Mean Total Transmission rate 4 h (%)” value came to 11.87% and the “gbp-prodrug/gbp Transmission Fold” value amounted to 10.8 Fold.

`CCOC(=O)CC1(CNC(=O)C(N)CCc2ccccc2)CCCCC1` (centres unmarked) [Embodiment 31, {1-[(2-Amino-4-phenyl-butyrylamino)-methyl]-cyclohexyl}-acetic acid ethyl ester]: in the data set on Caco-2 cell (human, Caco-2, 4 h), the “Caco-2 Cell Mean Total Transmission rate 4 h (%)” value stood at 12.30% and the “gbp-prodrug/gbp Transmission Fold” value is given as 11.2 Fold.

With `CCOC(=O)CC1(CNC(=O)C(N)CCc2ccccc2)CCCCC1` (centres unmarked) [Embodiment 32, {1-[(2-Amino-4-phenyl-butyrylamino)-methyl]-cyclohexyl}-acetic acid ethyl ester], in the data set with Caco-2 cell (human, Caco-2, 4 h), the “Caco-2 Cell Mean Total Transmission rate 4 h (%)” value is 1.76% and the “gbp-prodrug/gbp Transmission Fold” value was determined as 1.6 Fold.

On to `CCOC(=O)CC1(CNC(=O)C(N)c2cc3ccccc3[nH]2)CCCCC1` (centres unmarked) [Embodiment 33, (1-{[2-Amino-2-(1H-indol-2-yl)-acetylamino]-methyl}-cyclohexyl)-acetic acid ethyl ester], for which, in the data set with Caco-2 cell (setting [2]), the “Caco-2 Cell Mean Total Transmission rate 4 h (%)” value came to 9.97%. Further, in the data set on Caco-2 cell (setting [3]), the “gbp-prodrug/gbp Transmission Fold” value is listed as 9.1 Fold.

On to `CCOC(=O)CC1(CNC(=O)C2CSCN2)CCCCC1` (centres unmarked) [Embodiment 34, (1-{[(Thiazolidine-4-carbonyl)-amino]-methyl}-cyclohexyl)-acetic acid ethyl ester], for which, in the data set with Caco-2 cell (human, Caco-2, 4 h), the “Caco-2 Cell Mean Total Transmission rate 4 h (%)” value came to 4.50% and the “gbp-prodrug/gbp Transmission Fold” value turned out to be 4.1 Fold.

Take `CCOC(=O)CC1(CNC(=O)C(N)c2ccc(O)cc2)CCCCC1` (centres unmarked) [Embodiment 35, (1-{[2-Amino-2-(4-hydroxy-phenyl)-acetylamino]-methyl}-cyclohexyl)-acetic acid ethyl ester]: in the data set on Caco-2 cell (human, Caco-2, 4 h), the “Caco-2 Cell Mean Total Transmission rate 4 h (%)” value is 10.33% and the “gbp-prodrug/gbp Transmission Fold” value was determined as 9.4 Fold.

Regarding `CCOC(=O)CC1(CNC(=O)CCNC(=O)c2cccnc2)CCCCC1` [Embodiment 36, [1-({3-[(Pyridine-3-carbonyl)-amino]-propionylamino}-methyl)-cyclohexyl]-acetic acid ethyl ester], the “Caco-2 Cell Mean Total Transmission rate 4 h (%)” value with Caco-2 cell (setting [2]) was 9.00%. In addition, in the data set on Caco-2 cell (setting [3]), the “gbp-prodrug/gbp Transmission Fold” value was found to be 8.2 Fold.

For `CCOC(=O)CC1(CNC(=O)C2CSCN2C(=O)OC(C)(C)C)CCCCC1` (centres unmarked) [Embodiment 37, 4-[(1-Ethoxycarbonylmethyl-cyclohexylmethyl)-carbamoyl]-thiazolidine-3-carboxylic acid tert-butyl ester], the “Caco-2 Cell Mean Total Transmission rate 4 h (%)” value in the data set on Caco-2 cell (setting [2]) is 6.13%. Also, the “gbp-prodrug/gbp Transmission Fold” value with Caco-2 cell (setting [3]) is listed as 5.6 Fold.

Take `CCOC(=O)CC1(CNC(=O)C(NC(=O)OC(C)(C)C)c2ccc(O)cc2)CCCCC1` (centres unmarked) [Embodiment 38, (1-{[2-tert-Butoxycarbonylamino-2-(4-hydroxy-phenyl)-acetylamino]-methyl}-cyclohexyl)-acetic acid ethyl ester]: the “Caco-2 Cell Mean Total Transmission rate 4 h (%)” value with Caco-2 cell (setting [2]) is on record as 5.05%. The “gbp-prodrug/gbp Transmission Fold” value with Caco-2 cell (setting [3]) is on record as 4.6 Fold.
